Measurements reported in publication PMC5843753, “Comparative analysis of plant isochorismate synthases reveals structural mechanisms underlying their distinct biochemical properties” (Bioscience Reports, 2018).

Columns and labels:
AtICS1 [1] = molecular target: T1, AtICS1 (Arabidopsis thaliana, UniProt Q9S7H8); test: isochorismate converted into SA, SA measured; assay type: biochemical; conditions: 1 mM barium chorismate, 10 mM MgCl2, pH 7.5, 30 C, 1 h; crude E. coli fraction
T1 construct: gene ICS1; putative chloroplast transit peptide removed, N-terminal His6 (pET28a), E. coli SHuffle T7, crude desalted protein fraction; also C-terminal 3xFLAG in N. benthamiana leaves
T1 sequence (Q9S7H8 46-569): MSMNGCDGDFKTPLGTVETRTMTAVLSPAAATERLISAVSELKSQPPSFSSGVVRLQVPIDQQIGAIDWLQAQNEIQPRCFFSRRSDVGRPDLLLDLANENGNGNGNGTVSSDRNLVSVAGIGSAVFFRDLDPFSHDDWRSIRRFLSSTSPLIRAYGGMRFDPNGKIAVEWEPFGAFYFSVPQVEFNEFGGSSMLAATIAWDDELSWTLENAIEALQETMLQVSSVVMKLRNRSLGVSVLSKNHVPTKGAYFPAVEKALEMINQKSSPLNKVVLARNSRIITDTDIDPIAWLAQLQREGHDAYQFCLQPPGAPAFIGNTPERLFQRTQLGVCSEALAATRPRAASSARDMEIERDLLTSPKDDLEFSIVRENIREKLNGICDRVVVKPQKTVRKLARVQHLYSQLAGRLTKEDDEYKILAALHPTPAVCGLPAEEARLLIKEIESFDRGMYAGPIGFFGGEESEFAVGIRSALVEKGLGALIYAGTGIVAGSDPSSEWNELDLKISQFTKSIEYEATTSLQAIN

AtICS1 [2] = molecular target: T2, AtICS1 (Arabidopsis thaliana, UniProt Q9S7H8, T531A); test: isochorismate converted into SA, SA measured; assay type: biochemical; conditions: 1 mM barium chorismate, 10 mM MgCl2, pH 7.5, 30 C, 1 h; crude E. coli fraction
T2 construct: gene ICS1; putative chloroplast transit peptide removed, N-terminal His6 (pET28a), E. coli SHuffle T7, crude desalted protein fraction; also C-terminal 3xFLAG in N. benthamiana leaves
T2 sequence (Q9S7H8 46-569 T531A): as the sequence (Q9S7H8 46-569) above, with T486A counted along it

NbICS = NbICS (Nicotiana benthamiana, UniProt A0A286T8R2); test: in planta SA accumulation with co-expressed IPL; assay type: cell-based; conditions: endogenous chorismate, N. benthamiana leaves, ICS to IPL 1:19
Chain of NbICS (A0A286T8R2 53-590): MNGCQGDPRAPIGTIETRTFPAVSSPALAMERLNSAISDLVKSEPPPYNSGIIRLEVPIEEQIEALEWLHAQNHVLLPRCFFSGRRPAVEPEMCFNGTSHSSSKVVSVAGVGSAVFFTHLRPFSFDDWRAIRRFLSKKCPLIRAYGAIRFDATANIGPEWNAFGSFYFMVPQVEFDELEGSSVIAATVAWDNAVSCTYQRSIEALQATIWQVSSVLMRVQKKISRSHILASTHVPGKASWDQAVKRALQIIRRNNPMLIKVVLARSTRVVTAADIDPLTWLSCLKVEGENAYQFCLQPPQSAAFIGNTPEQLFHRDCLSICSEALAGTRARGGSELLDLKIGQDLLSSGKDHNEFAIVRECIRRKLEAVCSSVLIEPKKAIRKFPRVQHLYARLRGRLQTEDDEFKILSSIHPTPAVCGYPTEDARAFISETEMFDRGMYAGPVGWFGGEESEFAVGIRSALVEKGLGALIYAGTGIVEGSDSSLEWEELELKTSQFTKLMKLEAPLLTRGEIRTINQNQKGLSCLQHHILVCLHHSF

NtICS = molecular target: T3, NtICS (Nicotiana tabacum, UniProt A0A286T848); test: in planta SA accumulation with co-expressed IPL; assay type: cell-based; conditions: endogenous chorismate, N. benthamiana leaves, ICS to IPL 1:19
T3 sequence (A0A286T848 48-584): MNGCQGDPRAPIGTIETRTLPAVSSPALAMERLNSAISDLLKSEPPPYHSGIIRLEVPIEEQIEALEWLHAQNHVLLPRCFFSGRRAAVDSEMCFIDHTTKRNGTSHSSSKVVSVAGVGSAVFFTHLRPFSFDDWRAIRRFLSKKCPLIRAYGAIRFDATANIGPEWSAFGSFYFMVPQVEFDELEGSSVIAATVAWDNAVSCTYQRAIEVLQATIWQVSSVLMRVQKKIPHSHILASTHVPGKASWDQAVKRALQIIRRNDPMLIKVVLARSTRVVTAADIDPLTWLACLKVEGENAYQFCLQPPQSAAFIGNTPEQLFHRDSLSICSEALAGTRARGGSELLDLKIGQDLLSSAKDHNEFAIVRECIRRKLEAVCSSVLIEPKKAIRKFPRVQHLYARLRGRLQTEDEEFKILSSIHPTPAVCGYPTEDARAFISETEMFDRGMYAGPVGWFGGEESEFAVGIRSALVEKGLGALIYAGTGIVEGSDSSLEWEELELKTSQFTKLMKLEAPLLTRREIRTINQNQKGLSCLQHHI

EntC = molecular target: T4, EntC (Escherichia coli, UniProt P0AEJ2); test: isochorismate converted into SA, SA measured; assay type: biochemical; conditions: 1 mM barium chorismate, 10 mM MgCl2, pH 7.5, 30 C, 1 h; crude E. coli fraction; linearity not confirmed for EntC in E. coli
T4 construct: N-terminal His6 (pET28a), E. coli SHuffle T7, crude desalted protein fraction; also with tobacco Rubisco small subunit transit peptide and 3xFLAG in N. benthamiana
T4 sequence (P0AEJ2 1-391): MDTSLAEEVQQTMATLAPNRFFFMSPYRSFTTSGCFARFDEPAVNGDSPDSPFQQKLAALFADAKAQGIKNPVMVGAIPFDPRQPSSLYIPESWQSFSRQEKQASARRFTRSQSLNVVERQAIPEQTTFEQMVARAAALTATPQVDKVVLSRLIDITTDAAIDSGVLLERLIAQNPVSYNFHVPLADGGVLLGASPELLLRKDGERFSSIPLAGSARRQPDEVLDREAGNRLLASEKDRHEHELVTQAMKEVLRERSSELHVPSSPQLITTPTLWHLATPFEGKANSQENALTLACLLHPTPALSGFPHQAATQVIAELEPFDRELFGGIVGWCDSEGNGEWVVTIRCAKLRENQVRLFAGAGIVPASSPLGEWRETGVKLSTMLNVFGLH

OsICS = molecular target: T5, OsICS (Oryza sativa, UniProt A0A286T796); test: in planta SA accumulation with co-expressed IPL; assay type: cell-based; conditions: endogenous chorismate, N. benthamiana leaves, transit peptide replaced
T5 construct: own transit peptide replaced by that of AtICS1 or of tobacco Rubisco small subunit; N. benthamiana leaves, P. fluorescens IPL PmsB as coupling enzyme
T5 sequence (A0A286T796 46-581): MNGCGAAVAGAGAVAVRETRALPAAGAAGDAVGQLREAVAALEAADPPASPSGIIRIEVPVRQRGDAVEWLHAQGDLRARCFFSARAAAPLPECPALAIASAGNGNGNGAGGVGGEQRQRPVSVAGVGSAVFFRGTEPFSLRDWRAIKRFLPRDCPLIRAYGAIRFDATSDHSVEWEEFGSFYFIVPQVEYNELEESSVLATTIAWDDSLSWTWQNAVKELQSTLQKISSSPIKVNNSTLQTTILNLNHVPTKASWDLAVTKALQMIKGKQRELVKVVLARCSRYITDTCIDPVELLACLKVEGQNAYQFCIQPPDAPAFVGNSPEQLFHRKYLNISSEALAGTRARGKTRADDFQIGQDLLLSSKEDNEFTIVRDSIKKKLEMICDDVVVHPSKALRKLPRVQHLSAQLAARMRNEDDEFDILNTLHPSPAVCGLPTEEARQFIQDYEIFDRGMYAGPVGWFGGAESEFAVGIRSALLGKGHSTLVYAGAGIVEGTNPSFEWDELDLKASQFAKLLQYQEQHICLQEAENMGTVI

**Q.** What does the source list for `C=C(O[C@@H]1C=C(C(=O)O)C=C[C@H]1O)C(=O)O` [chorismate]?
**A.** ICS activity (AtICS1 [1]): AtICS1 and EntC showed activity that was much higher than the empty vector control; ICS activity (AtICS1 [2]): The T531A mutant showed the lowest activity compared with the S537T and I550A mutants; SA level (NbICS): expression of NtICS or NbICS with IPL resulted in significant increases in the levels of SA; SA level (NtICS): expression of NtICS or NbICS with IPL resulted in significant increases in the levels of SA; ICS activity (EntC): AtICS1 and EntC showed activity that was much higher than the empty vector control; SA level (OsICS): OsICS with TP^AtICS1 or TP^SS showed low but significant levels of ICS activity in planta
